In patent US20230391772A1, “METHODS AND COMPOSITIONS FOR TARGETED PROTEIN DEGRADATION” (Ranok Therapeutics (Hangzhou) Co. Ltd., priority 2020, published 2023):

Columns and labels:
[1] = molecular target: T1, HSP90a protein (Homo sapiens, UniProt P07900); experiment: HSP90α-binding fluorescent polarization (FP) assay, BODIPY-labeled RNK04010 probe; details: FP competition with RNK04010 (BODIPY-labeled), 5 nM, 300 min at 25° C.
T1 construct: purchased BPS Bioscience 50298
Summary of the method: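 Competitive FP with N-terminal HSP90a; probe at 5 nM final, either BODIPY-labeled triazolone RNK04010 or FITC-geldanamycin. Test compounds as 2.5-fold dilutions from 20 μM to 5.2 nM. Incubated at 25 °C for 300 min (RNK04010) or 120 min (FITC-geldanamycin) before reading polarization.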

[2] = test system: MIA PaCa-2 human pancreatic carcinoma; experiment: MIA PaCa-2 CCK-8 proliferation assay; format: cell-based; details: Homo sapiens, MIA PaCa-2, 72 h, MIA PaCa-2 cells
Summary of the method: (§1)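 Percent inhibition derived from CCK-8 optical signal, normalised between DMSO-only cells (0%) and cell-free medium containing DMSO as background. Cells: MIA PaCa-2 carrying 2 KRAS(G12C) copies; NCI-H358, NCI-H23 carrying 1 copy apiece. Concentrations spanned 1.02 nM–20 μM in threefold increments.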

[3] = molecular target: T2, KRAS(G12C) (Homo sapiens, UniProt P01116, G12C); experiment: KRAS(G12C) Western blot protein degradation assay in MIA PaCa-2 cells; format: cell-based; design: host or cells: LU65A; details: 48 hr; for inhibition at 0.1562 µM: 156.2 nM; for inhibition at 0.3125 µM: 312.5 nM; for inhibition at 0.625 µM: 625 nM; for inhibition at 1.25 µM: 1250 nM; for inhibition at 2.5 µM: 2500 nM; for inhibition at 5 µM: 5000 nM; for inhibition at 10 µM: 10,000 nM
Method: The following cancer cell lines were employed: BT-474 human breast carcinoma (ATCC, #HTB-20); MIA PaCa-2 human pancreatic carcinoma [2 copies KRAS(G12C)](ATCC, #CRL-1420); NCI-H23 human non-small cell lung cancer [1 copy KRAS(G12C)](ATCC, #CRL-5800); NCI-H358 human non-small cell lung cancer [1 copy KRAS(G12C)](ATCC, #CRL-5807); LU65A human lung carcinoma (Pharmaron, Beijing, China). Cell lines were cultured essentially according to ATCC and Pharmaron recommendations.
KRAS(G12C) Western Blot Protein Degradation Assay
The MIA PaCa-2 human pancreatic carcinoma cell line and LU65A human lung cancer cell line, which expresses KRAS(G12C), were seeded in 6- or 12-well tissue culture plates, and after 1 hr, test compounds were added at various concentrations and incubated at 37° C./5% CO2 for 48 hr (MIA Paca-2) and 6 hr (LU65A) respectively. Cells were then washed with cold PBS, aspirated and cold RIPA buffer containing a protease/phosphatase inhibitor cocktail was added to lyse cells. After centrifugation, the total protein concentrations of cell lysates were determined using the BCA protein assay. Samples were normalized for equivalent protein concentrations, 5×SDS-PAGE loading buffer added and denatured at 100° C. for 10 min. 20 μl of each sample/well was loaded on a SDS-PAGE gel and electrophoresed for 20 min at 80 V, then 120 V for 1.5 hr. Gels were then electroblotted to nitrocellulose membranes using a wet-transfer method at 250 mA for 2.5 hr. Membranes were incubated with blocking buffer for 1 hr and washed 3 times with TBST for 5 min. Membranes were then incubated with anti-KRAS (Sigma-Aldrich, #SAB1404011) and anti-β-Actin monoclonal antibodies (Cell Signaling Technology, #3700) diluted in blocking buffer at 4° C. overnight per the manufacturer's recommendations. After washing 3 times, blots were incubated with appropriately labeled secondary antibodies for 1 hr at room temperature and washed again. Fluorescence imaging and quantitation was performed using a LI-COR Odyssey. Results was analyzed using GraphPad Prism 7 software. Compound degradation of was determined by the following equation and DC50 values (the concentration at which 50% of the maximal degradation of KRAS occurs) calculated using GraphPad Prism 7 software:
% Inhibition=100−(D−B)/(S−B)*100%. • S: Fluorescence intensity of cells with antibody • D: Fluorescence intensity of compound-treated cells with antibody • B: Fluorescence intensity of cells without antibody

[4] = molecular target: T2, KRAS(G12C); experiment: KRAS(G12C)/SOS1 homogeneous time-resolved fluorescence (HTRF) assay; design: purchased Cisbio 63ADK000CB16PEG; details: absence of GTP, 4° C. for 3 hr, read-out: KRAS (G12C) binding
Summary of the method: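 HTRF kit measuring compound-induced block of KRAS(G12C)-SOS1 interaction without GTP. Compounds tested as 3-fold serial dilutions down to 1.02 nM, incubated with reaction components 3 h at 4 °C in sealed plates before fluorescence read.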

[5] = test system: NCI-H358 human non-small cell lung cancer; experiment: NCI-H358 CCK-8 proliferation assay; format: cell-based; details: NCI-H358 cells, 72 hr
Summary of the method: as §1

[6] = molecular target: T2, KRAS(G12C); experiment: KRAS(G12C) Western blot protein degradation assay in LU65A cells; format: cell-based; design: LU65A human lung cancer cell line, which expresses KRAS(G12C); host or cells: LU65A; details: 6 hr
Summary of the method: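 Cells treated with compound at various concentrations at 37 °C for 48 hr (MIA PaCa-2) or 6 hr (LU65A), then lysed in RIPA. Protein-normalized lysates immunoblotted for KRAS with β-actin, fluorescence quantified; DC50 is the concentration giving 50% of maximal KRAS degradation.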

T2 sequence (P01116 1-188 isoform P01116-2 G12C): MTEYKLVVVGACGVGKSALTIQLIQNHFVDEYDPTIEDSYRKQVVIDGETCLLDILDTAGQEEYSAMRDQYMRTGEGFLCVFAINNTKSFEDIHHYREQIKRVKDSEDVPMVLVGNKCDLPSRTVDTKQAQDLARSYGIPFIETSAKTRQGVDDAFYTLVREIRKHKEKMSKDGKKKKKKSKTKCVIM

| Structure (SMILES) | IC50 [1] | EC50 [2] | inhibition at 0.1562 µM [3] | inhibition at 0.3125 µM [3] | inhibition at 0.625 µM [3] | inhibition at 1.25 µM [3] | inhibition at 2.5 µM [3] | inhibition at 5 µM [3] | inhibition at 10 µM [3] | IC50 [4] | EC50 [5] | DC50 [6] |
| --- | --- | --- | --- | --- | --- | --- | --- | --- | --- | --- | --- | --- |
| C=CC(=O)N1CCN(c2nc(OC[C@@H]3CCN(C(=O)c4cc(C(C)C)c(OC)cc4O)C3)nc3c2CCN(c2cccc4cccc(Cl)c24)C3)C[C@@H]1CC#N [Compound 159, 2-((S)-1-acryloyl-4-(7-(8-chloronaphthalen-1-yl)-2-(((R)-1-(2-hydroxy-5-isopropyl-4-methoxybenzoyl)pyrrolidin-3-yl)methoxy)-5,6,7,8-tetrahydropyrido[3,4-d]pyrimidin-4-yl)piperazin-2-yl)acetonitrile] | > 1 µM | – | < 33% | < 33% | < 33% | < 33% | < 33% | < 33% | < 33% | > 1 µM | > 1 µM | – |
| C=CC(=O)N1CCN(c2nc(OC[C@@H]3CCN(C(=O)C4CCN(Cc5ccc(-n6c(C(=O)NCC(F)(F)F)nnc6-c6cc(C(C)C)c(O)cc6O)cc5)CC4)C3)nc3c2CCN(c2cccc4cccc(Cl)c24)C3)C[C@@H]1CC#N [Compound 185, 4-(4-((4-((R)-3-(((4-((S)-4-acryloyl-3-(cyanomethyl)piperazin-1-yl)-7-(8-chloronaphthalen-1-yl)-5,6,7,8-tetrahydropyrido[3,4-d]pyrimidin-2-yl)oxy)methyl)pyrrolidine-1-carbonyl)piperidin-1-yl)methyl)phenyl)-5-(2,4-dihydroxy-5-isopropylphenyl)-N-(2,2,2-trifluoroethyl)-4H-1,2,4-triazole-3-carboxamide] | 0.1 to 1 µM | < 0.1 µM | < 33% | < 33% | < 33% | 33 to 66% | > 66% | > 66% | > 66% | 0.1 to 1 µM | – | – |
| C=CC(=O)N1CCN(c2nc(OC[C@@H]3CCN(C(=O)c4cc(C(C)C)c(O)cc4OC)C3)nc3c2CCN(c2cccc4cccc(Cl)c24)C3)C[C@@H]1CC#N [Compound 153, 2-((S)-1-acryloyl-4-(7-(8-chloronaphthalen-1-yl)-2-(((R)-1-(4-hydroxy-5-isopropyl-2-methoxybenzoyl)pyrrolidin-3-yl)methoxy)-5,6,7,8-tetrahydropyrido[3,4-d]pyrimidin-4-yl)piperazin-2-yl)acetonitrile] | > 1 µM | > 1 µM | < 33% | < 33% | < 33% | < 33% | < 33% | < 33% | < 33% | – | > 1 µM | – |
| C=CC(=O)N1CCN(c2nc(OCC3CN(C(=O)C4CCN(Cc5ccc(-n6c(C(=O)NCC(F)(F)F)nnc6-c6cc(C(C)C)c(O)cc6O)cc5)CC4)C3)nc3c2CCN(c2cccc4cccc(Cl)c24)C3)C[C@@H]1CC#N [Compound 220, (S)-4-(4-((4-(3-(((4-(4-acryloyl-3-(cyanomethyl)piperazin-1-yl)-7-(8-chloronaphthalen-1-yl)-5,6,7,8-tetrahydropyrido[3,4-d]pyrimidin-2-yl)oxy)methyl)azetidine-1-carbonyl)piperidin-1-yl)methyl)phenyl)-5-(2,4-dihydroxy-5-isopropylphenyl)-N-(2,2,2-trifluoroethyl)-4H-1,2,4-triazole-3-carboxamide] | < 0.1 µM | 0.1 to 1 µM | – | – | – | – | – | – | – | 0.1 to 1 µM | – | > 1 µM |

Second part, the compound after the results:

| IC50 [1] | EC50 [2] | inhibition at 0.1562 µM [3] | inhibition at 0.3125 µM [3] | inhibition at 0.625 µM [3] | inhibition at 1.25 µM [3] | inhibition at 2.5 µM [3] | inhibition at 5 µM [3] | inhibition at 10 µM [3] | IC50 [4] | EC50 [5] | DC50 [6] | Structure (SMILES) |
| --- | --- | --- | --- | --- | --- | --- | --- | --- | --- | --- | --- | --- |
| 0.1 to 1 µM | 0.1 to 1 µM | < 33% | < 33% | < 33% | 33 to 66% | 33 to 66% | > 66% | > 66% | – | – | – | C=CC(=O)N1CCN(c2nc(OC[C@@H]3CCN(C(=O)C4CCN(Cc5ccc(-n6c(C(N)=O)nnc6-c6cc(C(C)C)c(O)cc6O)cc5)CC4)C3)nc3c2CCN(c2cccc4cccc(Cl)c24)C3)C[C@@H]1CC#N [Compound 183, 4-(4-((4-((R)-3-(((4-((S)-4-acryloyl-3-(cyanomethyl)piperazin-1-yl)-7-(8-chloronaphthalen-1-yl)-5,6,7,8-tetrahydropyrido[3,4-d]pyrimidin-2-yl)oxy)methyl)pyrrolidine-1-carbonyl)piperidin-1-yl)methyl)phenyl)-5-(2,4-dihydroxy-5-isopropylphenyl)-4H-1,2,4-triazole-3-carboxamide] |
| < 0.1 µM | 0.1 to 1 µM | – | – | – | – | – | – | – | < 0.1 µM | – | > 1 µM | C=CC(=O)N1CCN(c2nc(OC[C@@H]3C[C@H](N4CCC5(CCN(Cc6ccc(-n7c(O)nnc7-c7cc(C)c(O)cc7O)cc6)CC5)CC4)CN3C)nc3c2CCN(c2cccc4cccc(Cl)c24)C3)C[C@@H]1CC#N [Compound 228, 2-[(2S)-4-[7-(8-chloronaphthalen-1-yl)-2-{[(2S,4S)-4-[9-({4-[3-(2,4-Dihydroxy-5-methylphenyl)-5-hydroxy-1,2,4-triazol-4-yl]phenyl}methyl)-3,9-diazaspiro[5.5]undecan-3-yl]-1-methylpyrrolidin-2-yl]methoxy}-5H,6H,8H-pyrido[3,4-d]pyrimidin-4-yl]-1-(prop-2-enoyl)piperazin-2-yl]acetonitrile] |
| < 0.1 µM | < 0.1 µM | – | – | – | – | – | – | – | < 0.1 µM | – | 0.1 to 1 µM | C=CC(=O)N1CCN(c2nc(OC[C@@H]3C[C@H](N4CCC5(CCN(Cc6ccc(-n7c(O)nnc7-c7cc(C(C)C)c(O)cc7O)cc6)CC5)CC4)CN3C)nc3c2CCN(c2cccc4cccc(Cl)c24)C3)C[C@@H]1CC#N [Compound 334, 2-[(2S)-4-[7-(8-chloronaphthalen-1-yl)-2-{[(2S,4S)-4-[9-({4-[3-(2,4-dihydroxy-5-isopropylphenyl)-5-hydroxy-1,2,4-triazol-4-yl]phenyl}methyl)-3,9-diazaspiro[5.5]undecan-3-yl]-1-methylpyrrolidin-2-yl]methoxy}-5H,6H,8H-pyrido[3,4-d]pyrimidin-4-yl]-1-(prop-2-enoyl)piperazin-2-yl]acetonitrile] |
| < 0.1 µM | > 1 µM | – | – | – | – | – | – | – | 0.1 to 1 µM | – | > 1 µM | C=CC(=O)N1CCN(c2nc(OCCN3CCN(Cc4ccc(-n5c(O)nnc5-c5cc(C)c(O)cc5O)cc4)CC3)nc3c2CCN(c2cccc4cccc(Cl)c24)C3)C[C@@H]1CC#N [Compound 213, (S)-2-(1-acryloyl-4-(7-(8-chloronaphthalen-1-yl)-2-(2-(4-(4-(3-(2,4-dihydroxy-5-methylphenyl)-5-hydroxy-4H-1,2,4-triazol-4-yl)benzyl)piperazin-1-yl)ethoxy)-5,6,7,8-tetrahydropyrido[3,4-d]pyrimidin-4-yl)piperazin-2-yl)acetonitrile] |
